According to patent publication EP0808325B1, “[…] […] SERIES FOR […] GABA RECEPTOR” (priority 1994, dated 1996):

Assays:
GR complex = experiment: modulation of [35S]TBPS binding in rat cerebral cortex P2 homogenate; set-up: species or system Sprague-Dawley rats; IMAX: unit not given here; details: for IC50: concentration of compounds to inhibit 50% of control [35S]TBPS binding, 2 nM [35S]TBPS, 25°C, 90 minutes, no unit printed; for IMAX: maximum inhibition of [35S]TBPS binding, I* = Inactive
Protocol: We performed several experiments to determine the nature of the modulation of [^35S]TBPS as affected by the compounds of the invention.
These procedures were performed as follows:
Brains from male Sprague-Dawley rats were removed immediately following sacrifice and the cerebral cortices dissected over ice. […] Briefly, the cortices were gently homogenized in 0.32 M sucrose followed by centrifugation at 1000 x g for 10 minutes. The supernatant was collected and centrifuged at 9000 x g for 20 minutes. The resultant P2 pellet was suspended as a 10% (original wet weight/volume) suspension in 50 mM Na/K phosphate buffer (pH 7.4) 200 mM NaCI to form the homogenate.
One hundred microliter […] aliquots of the P2 homogenate (0.5 milligrams (mg) protein) were incubated with 2 nanomolar (nM) [^35S]TBPS (70-110 curies/millimole;, New England Nuclear, Boston, MA) in the presence or absence of the naturally occurring steroids or their synthetic derivatives to be tested. The tested compounds were dissolved in dimethylsulfoxide (Baker Chem. Co., Phillipsbury, NJ) and added to the incubation mixture in 5 µL aliquots. The incubation mixture was brought to a final volume of 1 mL with buffer. Nonspecific binding was defined as binding in the presence of […]. The effect and specificity of GABA (Sigma Chem. Co., St. Louis, MO) was evaluated by performing all assays in the presence of GABA plus (+)bicuculline (Sigma Chem. Co.). Incubations maintained at 25°C for 90 minutes (steady state conditions) were terminated by rapid filtration through glass fiber filters (No. 32, Schleicher and Schuell, Keene, NH). Filter-bound radioactivity was quantitated by liquid scintillation spectrophotometry.
Various compounds were screened to determine their potential as modulators of [^35S]TBPS binding in vitro. These assays were performed in accordance with the above discussed procedures. […] It is an indication of a compound's in vitro potency. Maximum inhibition is an indication of a compound's in vitro efficacy.

[1] = tested on: metrazol induced convulsions; experiment: animal or person; assay type: in vivo, mice; details: IP
Protocol: Experiments were also performed to determine the physiological relevance of neuroactive steroid and GABA receptor interactions by assessing the ability of the compounds of and used in the invention to prevent metrazol induced convulsions in mice. […] The time to onset of myoclonus (presence of forelimb clonic activity) induced by metrazol was determined by observing each mouse for a period of 30 minutes. […]
The anticonvulsant tests are similar to that described above. […] The number of animals with tonic and/or clonic convulsions was recorded. In the maximal electroshock test, 50 mA of current at 60 Hz was delivered through corneal electrodes for 200 msec to induce tonic seizure. The ability of compounds to abolish the tonic component was defined as the endpoint. General CNS depression potential was determined by a rotorod test 10 minutes after the injection of compounds where the number of mice staying on a rotating (6 rpm) rod for 1 minute in one of the three trials was determined. […]

mice = experiment: elevated plus-maze; assay type: in vivo, N.I.H. Swiss-Webster mice
Description: The theoretical basis for the elevated plus-maze test is similar to that of the light/dark transition test. As described by Pellow et al., J. Neurosci. Meth 14:149-167 (1985), the elevated plus-maze apparatus is designed to utilize the mice's natural aversion to open spaces. The apparatus consists of two open-arms and two enclosed-arms. The elevated plus-maze test allows for two measures of anxiety, the number of entries into the open-arms and the time spent on the open-arms, both expressed as a percentage of the total number of entries and time spent in/on both the open-arms and enclosed-arms.
Male N.I.H. Swiss-Webster mice (Harlan, Indianapolis, IN) weighing 15-20 g were housed four per cage in polyethylene cages with sawdust bedding. The colony room was environmentally controlled (22°C) with a 12 hr light/dark cycle (0600-1800 hr). Food and water were available ad libitum, except during testing. The experiments were run from 0700-1500 hr and groups were counterbalanced for time of day effects. Mice were only administered drug or vehicle once.
The method used was previously described (Lister, Psychopharmacol. 92:180-185 (1987)). The apparatus included two open arms perpendicular to two enclosed arms elevated 50 cm from the floor. Each arm was 50 cm long and the walls of the enclosed arms were 40 cm tall. The maze was made completely of black plexiglass. Incandescent 200 W light bulbs were above each of the open arms to produce a strong contrast between the open arms and the enclosed arms.
Ten minutes after an injection, the N.I.H. Swiss-Webster mice were placed in the center of the plus-maze facing an open arm. During the 5 min test period, the number of entries onto the open arms and the enclosed arms, and the time spent in the open arms and enclosed arms were measured. All four paws had to be within an arm for the dependent variable to be measured. Therefore, the time spent in the center of the maze is not counted, so the total time spent in the open arms and the enclosed arms may not equal 5 min. […]

rats = experiment: Geller-Seifter conflict test; assay type: in vivo, Sprague-Dawley rats
Description: This animal model of human anxiety utilizes a conditioned state of conflict in rats to ascertain the anxiolytic properties of drugs. Rats are conditioned to bar press for positive reinforcement under two schedules of behavior (Geller and Seifter, Psychopharmacologia 1:482-492 (1960)). The first includes bar pressing under a […] schedule without punishment. The second component is a fixed ratio schedule with each bar press resulting in a positive reinforcement and a punishment. The punished component produces a state of conflict within the animal. […] An anxiolytic response would increase the punished responding without affecting the unpunished responding.
Male albino Sprague-Dawley rats (Charles River Labs, Wilmington, MA) weighing 250-300 g were used for conflict experiments and were kept on a restricted diet of Purina Lab Chow food pellets with water available at all times to maintain body weight at 85% of their free-feeding young adult levels. Rats were housed individually under a 12-hour light-dark cycle with lights on from 0700-1900.
The anti-anxiety (punishment-lessening) and response depressant effects of […] and […] were measured in rats by the conflict test of Geller and Seifter (1960). In this 63-min test, hungry rats perform a lever-press response to obtain a sweetened milk reward. The reinforcement schedule consists of punishment and nonpunishment components, alternating approximately every 15 min. Rats were trained in test chambers (Coulbourn instruments) with a lever mounted in one wall, a small dipper that delivered the 0.1-mL milk reward (1 part Eagle condensed : milk 2 parts water), and a metal grid floor through which the foot-shock punishment was administered. A DEC PDP 11/73 minicomputer running SKED (State Systems) was used for programming and recording.
Rates initially learned to respond on a continuous reinforcement schedule and progressed rapidly to 30-sec, 1-min, and 2-min variable interval (VI) schedules. On the continuous reinforcement schedule, rats received milk reward following every lever press; on the VI schedules, milk rewards were available at infrequent and variable intervals, eventually at an average of once every 2 min. Four 3-min "conflict" periods were then introduced on the unpunished VI baseline; the first started after 3 min of VI performance and the others were alternated between 12-min periods of VI responding. During conflict periods, which were signalled by the presentation of a light and a tone, the continuous reinforcement schedule was again in force and each lever press delivered both a milk reward and a brief ([…]) foot-shock punishment. Shock intensity was 0.2 mA initially, and.was increased daily in increments of 0.02 mA in order to gradually suppress lever pressing to 5 responses or less per conflict period. This training took 4-6 weeks, after which stable low rates of response were observed during conflict periods and stable high rates in the nonpunishment periods. Drug-induced increases in the rate of punished responses were taken as an index of antianxiety activity, while decreases in the rate of unpunished responses were taken as an index of response depression or sedation.

[2] = 50% hpbcd, 10 mg/kg, 10 minutes prior to metrazol (85 mg/kg)

C#C[C@@]1(O)CC[C@@]2(C)[C@@H](CC[C@@H]3[C@@H]2CC[C@]2(C)[C@@H](C(C)=O)CC[C@@H]32)C1 [3α-hydroxy-3β-ethynyl-5α-pregnan-20-one, 3β-Ethynyl-3α-hydroxy-5α-pregnan-20-one]
IC50 (GR complex): 53 nM
IMAX (GR complex): 91
% Protected [1, 2]: 87.5%
% Control (mice; IP, 50% hpbcd, 10 mg/kg): 213%
Geller/Seifter (% of control) (rats; sc, 50% hpbcd, 8 mg/kg): 830.2 % of control

CC=C1CCC2C3CCC4CC(O)(C(F)(F)F)CCC4C3CCC12C (stereo not drawn) [3α-Hydroxy-3β-trifluoromethyl-5β-19-norpregn-17(20)(Z)-ene]
% Protected [1, 2]: 25%
Geller/Seifter (% of control) (rats; sc, 50% hpbcd, 16 mg/kg): 1130.3 % of control

C[C@]12CC[C@H]3[C@@H](CC[C@@H]4C[C@@](O)(C(F)(F)F)CC[C@@H]43)[C@@H]1CC[C@@H]2C(=O)COC(=O)CCC(=O)[O-].[Na+] [3α,21-dihydroxy-3β-trifluoromethyl-19-nor-5β-pregnan-20-one, 21-hemisuccinate, sodium salt]
IC50 (GR complex): 530 nM
IMAX (GR complex): 101
% Protected ([1]; water, 10 mg/kg): 50%
% Control (mice; IP, water, 20 mg/kg): 161.1%
Geller/Seifter (% of control) (rats; po, water, 8 mg/kg): 2493.4 % of control

C#C[C@@]1(O)CC[C@@]2(C)[C@H](CC[C@@H]3[C@@H]2CC[C@]2(C)[C@@H](C(=O)COC(=O)CCC(=O)O)CC[C@@H]32)C1 [3α,21-dihydroxy-3β-ethynyl-5β-pregnan-20-one 21 hemisuccinat] [3α,21-dihydroxy-3β-ethynyl-5β-pregnan-20-one 21 hemisuccinate]
IMAX (GR complex): 82
% Protected ([1]; water, 10 mg/kg): 50%
% Control (mice; IP, 50% hpbcd, 10 mg/kg): 164.2%
Geller/Seifter (% of control) (rats; po, water, 16 mg/kg): 1350.0 % of control

CC(=O)[C@H]1CC[C@H]2[C@@H]3CC[C@@H]4C[C@@](O)(C(F)(F)F)CC[C@]4(C)[C@H]3C=C[C@]12C [3α-Hydroxy-3β-trifluoromethyl-5β-pregn-11-en-20-one]
IC50 (GR complex): 203 nM
IMAX (GR complex): 99
Geller/Seifter (% of control) (rats; sc, 50% hpbcd, 4 mg/kg): 508.3 % of control

C=C[C@@]1(O)CC[C@@]2(C)[C@@H](CC[C@@H]3[C@@H]2CC[C@]2(C)[C@@H](C(C)=O)CC[C@@H]32)C1 [3β-ethenyl-3α-hydroxy-5α-pregnan-20-one, 3β-Ethenyl-3α-hydroxy-5α-pregnan-20-one]
IC50 (GR complex): 113 nM
IMAX (GR complex): 88
% Protected [1, 2]: 100%
% Control (mice; IP, 50% hpbcd, 5 mg/kg): 154.3%
Geller/Seifter (% of control) (rats; po, 50% hpbcd, 12 mg/kg): 1092.3 % of control

C=C(C)C#CC1(O)CCC2(C)C(CCC3C2CCC2(C)C(C(C)=O)CCC32)C1 (stereo not drawn) [3α-hydroxy-3β-(3'-methyl-but-3'-en-1'-ynyl)-5α-pregnan-20-one]
IC50 (GR complex): 88 nM
IMAX (GR complex): 95
% Protected [1, 2]: 87.5%
% Control (mice; IP, 50% hpbcd, 10 mg/kg): 141%

C#C[C@@]1(O)CC[C@@]2(C)[C@H](CC[C@@H]3[C@@H]2CC[C@]2(C)[C@@H](C(=O)COC(C)=O)CC[C@@H]32)C1 [3α,21-Dihydroxy-3β+ethynyl-5β-pregnan-20-one 21-acetate]
IC50 (GR complex): 251 nM
IMAX (GR complex): 101
% Protected [1, 2]: 62.5%
% Control (mice; IP, 50% hpbcd, 10 mg/kg): 159%

CC(=O)OCC(=O)[C@H]1CC[C@H]2[C@@H]3CC[C@H]4C[C@H](O)CC[C@]4(C)[C@H]3CC[C@]12C [3α,21-dihydroxy-5α-pregnan-20-one 21-acetate]
IC50 (GR complex): 75 nM
IMAX (GR complex): 99
% Protected [1, 2]: 50%
% Control (mice; IP, 50% hpbcd, 10 mg/kg): 133%

CC(O)C1CCC2C3CCC4CC(C)(O)CCC4(C)C3CCC12C (stereo not drawn) [3α,20α-dihydroxy-3β-methyl-5α-pregnane]
IC50 (GR complex): 166 nM
IMAX (GR complex): 52
% Protected ([1]; micro soln., 100 mg/kg): 60%
% Control (mice; IV, micro soln., 10 mg/kg): 174.5%

CC1([C@H]2CC[C@H]3[C@@H]4CC[C@H]5C[C@](C)(O)CC[C@]5(C)[C@H]4CC[C@]23C)NC(C(=O)O)CS1 (stereo partly drawn) [3α-Hydroxy-3β-methyl-5α-pregnane-20-spiro-2'-(1'3'-thiazolidine-4'-carboxylic acid)]
Geller/Seifter (% of control) (rats; sc, 50% hpbcd, 16 mg/kg): 900.0 % of control
